Laboratory results as given in patent publication US20250382344A1, “Soluble GLP1/GIP/NPY2 Receptor Triple Agonists” (Boehringer Ingelheim International GmH, priority 2024, published 2025).
Where two headings read alike, the source gives them in different places.

How the values were obtained:
hGIPR = target: T1, hGIPR (Homo sapiens, UniProt P48546); experiment: hGIPR CreLuc assay in 0.5% and 100% plasma (CHO CRE-luciferase reporter cells); assay type: cell-based
T1 construct: expressed in transfected cells; host or cells: CHO CRE-luciferase reporter cells
T1 sequence (P48546 22-466): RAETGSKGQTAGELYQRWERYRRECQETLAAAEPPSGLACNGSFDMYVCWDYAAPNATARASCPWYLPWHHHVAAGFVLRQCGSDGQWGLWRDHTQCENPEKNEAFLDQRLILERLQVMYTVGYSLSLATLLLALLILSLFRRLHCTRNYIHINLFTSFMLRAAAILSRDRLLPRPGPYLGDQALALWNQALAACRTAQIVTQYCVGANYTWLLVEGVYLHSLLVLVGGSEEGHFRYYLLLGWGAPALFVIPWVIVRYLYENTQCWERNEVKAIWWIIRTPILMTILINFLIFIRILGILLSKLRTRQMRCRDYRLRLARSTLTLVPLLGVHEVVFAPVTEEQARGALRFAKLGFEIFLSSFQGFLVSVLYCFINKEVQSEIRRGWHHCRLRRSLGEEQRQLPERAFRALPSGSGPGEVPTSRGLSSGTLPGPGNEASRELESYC

[1] = Solubility in 0.1 M phosphate buffer at pH 7; assay type: physicochemical; settings: 0.1 M phosphate buffer at pH 7, 10 mg/mL final peptide concentration, shaking 2 hours at room temperature, peptides as TFA-salts; measured sample pH 6.5-7.0
[2] = 0.5% human plasma, read-out: hGIPR 0.5% hP
[3] = 100% human plasma, read-out: hGIPR 100% hP

Compound	EC50 (hGIPR; [2])	solubility at 2 h [1]	EC50 (hGIPR; [3])
CC[C@H](C)[C@H](NC(=O)[C@H](CC(C)C)NC(=O)[C@H](Cc1c[nH]cn1)NC(=O)[C@H](CCCNC(=N)N)NC(=O)[C@@H](NC(=O)[C@H](Cc1ccccc1)NC(=O)[C@H](C)NC(=O)C(C)(C)NC(=O)[C@H](CCC(N)=O)NC(=O)[C@H](C)NC(=O)[C@H](CCC(N)=O)NC(=O)[C@H](CCCCN)NC(=O)[C@H](CCC(=O)O)NC(=O)[C@H](CC(C)C)NC(=O)C(C)(C)NC(=O)[C@@H](NC(=O)[C@H](CO)NC(=O)[C@H](Cc1ccc(O)cc1)NC(=O)[C@H](CC(=O)O)NC(=O)[C@H](CO)NC(=O)[C@@H](NC(=O)[C@H](Cc1ccccc1)NC(=O)[C@@H](NC(=O)CNC(=O)[C@H](CCC(=O)O)NC(=O)C(C)(C)NC(=O)[C@@H](N)Cc1ccc(O)cc1)[C@@H](C)O)[C@@H](C)O)[C@@H](C)CC)C(C)C)C(=O)N[C@@H](CC(N)=O)C(=O)N[C@@H](CCCCNC(=O)CC[C@H](NC(=O)CC[C@H](NC(=O)COCCOCCNC(=O)CC[C@H](NC(=O)CC[C@H](NC(=O)CC[C@H](NC(=O)CC[C@H](NC(=O)CCCCCCCCCCCCCCCCCCC(=O)O)C(=O)O)C(=O)O)C(=O)O)C(=O)O)C(=O)O)C(=O)O)C(=O)NC(C)(C)C(=O)N[C@H](C(=O)N[C@@H](CCCNC(=N)N)C(=O)N[C@@H](CCC(N)=O)C(=O)N[C@@H](CCCNC(=N)N)C(=O)N[C@@H](Cc1ccc(O)cc1)C(N)=O)[C@@H](C)O [Compound 136, Y-Aib-E-G-T-F-T-S-D-Y-S-I-Aib-L-E-K-Q-A-Q-Aib-A-F-V-R-H-L-I-N-K(1,3)-Aib-T-R-Q-R-Y-NH2.C20DA-gGlu-gGlu-gGlu-gGlu-OEG-gGlu-gGlu(1,2)]	0.5 nM	9600 µg/mL	
CC[C@H](C)[C@H](NC(=O)[C@H](CC(C)C)NC(=O)[C@H](Cc1c[nH]cn1)NC(=O)[C@H](CCCNC(=N)N)NC(=O)[C@@H](NC(=O)[C@H](Cc1ccccc1)NC(=O)[C@H](C)NC(=O)C(C)(C)NC(=O)[C@H](CCC(N)=O)NC(=O)[C@H](C)NC(=O)[C@H](CCC(N)=O)NC(=O)[C@H](CCCCN)NC(=O)[C@H](CCC(=O)O)NC(=O)[C@H](CC(C)C)NC(=O)C(C)(C)NC(=O)[C@@H](NC(=O)[C@H](CO)NC(=O)[C@H](Cc1ccc(O)cc1)NC(=O)[C@H](CC(=O)O)NC(=O)[C@H](CO)NC(=O)[C@@H](NC(=O)[C@H](Cc1ccccc1)NC(=O)[C@@H](NC(=O)CNC(=O)[C@H](CCC(=O)O)NC(=O)C(C)(C)NC(=O)[C@@H](N)Cc1ccc(O)cc1)[C@@H](C)O)[C@@H](C)O)[C@@H](C)CC)C(C)C)C(=O)N[C@@H](CC(N)=O)C(=O)N[C@@H](CCCCNC(=O)[C@@H](N)CCCCNC(=O)CC[C@H](NC(=O)CC[C@H](NC(=O)CC[C@H](NC(=O)CC[C@H](NC(=O)CC[C@H](NC(=O)CC[C@H](NC(=O)CCCCCCCCCCCCCCCCCCC(=O)O)C(=O)O)C(=O)O)C(=O)O)C(=O)O)C(=O)O)C(=O)O)C(=O)N[C@@H](CC(C)C)C(=O)N[C@H](C(=O)N[C@@H](CCCNC(=N)N)C(=O)N[C@@H](CCC(N)=O)C(=O)N[C@@H](CCCNC(=N)N)C(=O)N[C@@H](Cc1ccc(O)cc1)C(N)=O)[C@@H](C)O [Compound 27, Y-Aib-E-G-T-F-T-S-D-Y-S-I-Aib-L-E-K-Q-A-Q-Aib-A-F-V-R-H-L-I-N-K(1,3)-L-T-R-Q-R-Y-NH2.C20DA-gGlu-gGlu-gGlu-gGlu-gGlu-gGlu-eLys(1,2)]	0.6 nM	10000 µg/mL	
CC[C@H](C)[C@H](NC(=O)[C@H](CC(C)C)NC(=O)[C@H](Cc1c[nH]cn1)NC(=O)[C@H](CCCNC(=N)N)NC(=O)[C@@H](NC(=O)[C@H](Cc1ccccc1)NC(=O)[C@H](C)NC(=O)C(C)(C)NC(=O)[C@H](Cc1ccc(O)cc1)NC(=O)[C@H](C)NC(=O)[C@H](CCC(N)=O)NC(=O)[C@H](CCCCN)NC(=O)[C@H](CCC(=O)O)NC(=O)[C@H](CC(C)C)NC(=O)C(C)(C)NC(=O)[C@@H](NC(=O)[C@H](CO)NC(=O)[C@H](Cc1ccc(O)cc1)NC(=O)[C@H](CC(=O)O)NC(=O)[C@H](CO)NC(=O)[C@@H](NC(=O)[C@H](Cc1ccccc1)NC(=O)[C@@H](NC(=O)CNC(=O)[C@H](CCC(=O)O)NC(=O)C(C)(C)NC(=O)[C@@H](N)Cc1ccc(O)cc1)[C@@H](C)O)[C@@H](C)O)[C@@H](C)CC)C(C)C)C(=O)N[C@@H](CC(N)=O)C(=O)N[C@@H](CCCCNC(=O)[C@@H](N)CCCCNC(=O)CC[C@H](NC(=O)CC[C@H](NC(=O)CC[C@H](NC(=O)CC[C@H](NC(=O)CC[C@H](NC(=O)CC[C@H](NC(=O)CCCCCCCCCCCCCCCCC(=O)O)C(=O)O)C(=O)O)C(=O)O)C(=O)O)C(=O)O)C(=O)O)C(=O)NC(C)(C)C(=O)N[C@H](C(=O)N[C@@H](CCCNC(=N)N)C(=O)N[C@@H](CCC(N)=O)C(=O)N[C@@H](CCCNC(=N)N)C(=O)N[C@@H](Cc1ccc(O)cc1)C(N)=O)[C@@H](C)O [Compound 84, Y-Aib-E-G-T-F-T-S-D-Y-S-I-Aib-L-E-K-Q-A-Y-Aib-A-F-V-R-H-L-I-N-K(1,3)-Aib-T-R-Q-R-Y-NH2.C18DA-gGlu-gGlu-gGlu-gGlu-gGlu-gGlu-eLys(1,2)]	5 nM	4100 µg/mL	

These reach a lower EC50 (hGIPR; [2]). Values come first.

EC50 (hGIPR; [2])	solubility at 2 h [1]	EC50 (hGIPR; [3])	Compound
0.3 nM	10000 µg/mL	11.5 nM	CC[C@H](C)[C@H](NC(=O)[C@H](CC(C)C)NC(=O)[C@H](Cc1c[nH]cn1)NC(=O)[C@H](CCCNC(=N)N)NC(=O)[C@@H](NC(=O)[C@H](Cc1ccccc1)NC(=O)[C@H](C)NC(=O)C(C)(C)NC(=O)[C@H](CCC(N)=O)NC(=O)[C@H](C)NC(=O)[C@H](C)NC(=O)[C@H](CCCCN)NC(=O)[C@H](CCC(=O)O)NC(=O)[C@H](CC(C)C)NC(=O)C(C)(C)NC(=O)[C@@H](NC(=O)[C@H](CO)NC(=O)[C@H](Cc1ccc(O)cc1)NC(=O)[C@H](CC(=O)O)NC(=O)[C@H](CO)NC(=O)[C@@H](NC(=O)[C@H](Cc1ccccc1)NC(=O)[C@@H](NC(=O)CNC(=O)[C@H](CCC(=O)O)NC(=O)C(C)(C)NC(=O)[C@@H](N)Cc1ccc(O)cc1)[C@@H](C)O)[C@@H](C)O)[C@@H](C)CC)C(C)C)C(=O)N[C@@H](CC(N)=O)C(=O)N[C@@H](CCCCNC(=O)[C@@H](N)CCCCNC(=O)CC[C@H](NC(=O)CC[C@H](NC(=O)CC[C@H](NC(=O)CC[C@H](NC(=O)CC[C@H](NC(=O)CC[C@H](NC(=O)CCCCCCCCCCCCCCCCCCC(=O)O)C(=O)O)C(=O)O)C(=O)O)C(=O)O)C(=O)O)C(=O)O)C(=O)NC(C)(C)C(=O)N[C@H](C(=O)N[C@@H](CCCNC(=N)N)C(=O)N[C@@H](CCC(N)=O)C(=O)N[C@@H](CCCNC(=N)N)C(=O)N[C@@H](Cc1ccc(O)cc1)C(N)=O)[C@@H](C)O [Compound 4, Y-Aib-E-G-T-F-T-S-D-Y-S-I-Aib-L-E-K-A-A-Q-Aib-A-F-V-R-H-L-I-N-K(1,3)-Aib-T-R-Q-R-Y-NH2.C20DA-gGlu-gGlu-gGlu-gGlu-gGlu-gGlu-eLys(1,2)]
0.3 nM	800 µg/mL	8 nM	CC[C@H](C)[C@H](NC(=O)[C@H](CC(C)C)NC(=O)[C@H](Cc1c[nH]cn1)NC(=O)[C@H](CCCNC(=N)N)NC(=O)[C@@H](NC(=O)[C@H](Cc1ccccc1)NC(=O)[C@H](C)NC(=O)C(C)(C)NC(=O)[C@H](CCC(N)=O)NC(=O)[C@H](C)NC(=O)[C@H](CCC(N)=O)NC(=O)[C@H](CCCCN)NC(=O)[C@H](CCC(=O)O)NC(=O)[C@H](CC(C)C)NC(=O)C(C)(C)NC(=O)[C@@H](NC(=O)[C@H](CO)NC(=O)[C@H](Cc1ccc(O)cc1)NC(=O)[C@H](CC(=O)O)NC(=O)[C@H](CO)NC(=O)[C@@H](NC(=O)[C@H](Cc1ccccc1)NC(=O)[C@@H](NC(=O)CNC(=O)[C@H](CCC(=O)O)NC(=O)C(C)(C)NC(=O)[C@@H](N)Cc1ccc(O)cc1)[C@@H](C)O)[C@@H](C)O)[C@@H](C)CC)C(C)C)C(=O)N[C@@H](CC(N)=O)C(=O)N[C@@H](CCCCNC(=O)[C@@H](N)CCCCNC(=O)[C@@H](N)CCCCNC(=O)CC[C@H](NC(=O)CC[C@H](NC(=O)CC[C@H](NC(=O)CC[C@H](NC(=O)CC[C@H](NC(=O)CC[C@H](NC(=O)CCCCCCCCCCCCCCCCC(=O)O)C(=O)O)C(=O)O)C(=O)O)C(=O)O)C(=O)O)C(=O)O)C(=O)NC(C)(C)C(=O)N[C@H](C(=O)N[C@@H](CCCNC(=N)N)C(=O)N[C@@H](CCC(N)=O)C(=O)N[C@@H](CCCNC(=N)N)C(=O)N[C@@H](Cc1ccc(O)cc1)C(N)=O)[C@@H](C)O [Compound 11, Y-Aib-E-G-T-F-T-S-D-Y-S-I-Aib-L-E-K-Q-A-Q-Aib-A-F-V-R-H-L-I-N-K(1,3)-Aib-T-R-Q-R-Y-NH2.C18DA-gGlu-gGlu-gGlu-gGlu-gGlu-gGlu-eLys-eLys(1,2)]
